Reference: publication PMC11984905, “Chiral Switch of Gadopiclenol: New Standards in MRI Probes” (Advanced Science, 2025)

Experiments:
[1] = Eu^3+ complex, 0.1 M Me4NCl, 25 °C, cited from earlier work
[2] = Biodistribution and in vivo dynamic T1-weighted MRI; set-up: species or system A/J healthy mice; conditions: 0.1 mmol Gd/kg i.v.
Procedure: Dynamic T 1‐weighted MRI on twelve A/J healthy mice was used to compare the biodistribution of ([Gd(ent‐L2)] and [Gd(BT‐DO3A)] (Gadovist), n = 6 animals each), administered at 0.1 mmol Gd/kg. The MRI monitored the distribution within abdominal tissues for up to 1 h post‐administration MRI images and the pharmacokinetic curves are shown in Figure 6 .
All the procedures and the experiments were conducted according to the national and international laws on experimental animal research (L.D. 26/2014; Directive 2010/63/EU) and under a specific Italian Ministerial Authorization (project research number 46/2015‐PR). Twelve A/J healthy mice (females, 6–7 weeks old, supplied by Envigo RMS S.r.l.) were housed in a controlled environment (22°C, 55% humidity, 15–20 air changes/hour, 12‐h light/dark cycle) with ad libitum access to VRF1 (P) certified pellets and filtered water. To minimize discomfort, the animals were socially housed with enrichment items. Veterinary care was available throughout the study to alleviate any potential pain or distress following procedures. […] The animals were randomly assigned to two experimental groups (n = 6 each, with sample size confirmed via GPower) and underwent to Magnetic Resonance Imaging (MRI) experiments performed using a BioSpec 47/30 preclinical scanner (Bruker Biospin, Ettlingen, Germany) operating at […] (i.e., at a proton Larmor frequency of 125 MHz) and equipped with two‐channel 35 mm RF volume coil. During MRI experiments, all the animals were anaesthetized with isoflurane gas (≈1%) in O2. Anaesthesia was maintained by adjustment of gas level as a function of breath rate. Before injection of each test article, T 1‐weighted spin echo sequences were acquired on the animal in order to check the position of the animal. A series of T 1‐weighted 3D gradient echoscans (repetition time = 50 ms, flip angle = 50°, echo time = 2.8 ms, number of averages = 2, matrix size (3D) = 192 × 192 × 8, field of view = 2.5 × 2.5 × 1.2 cm, acquisition time = 154 s) were then acquired before and after the intravenous administration of a 50 mM saline solution (0.9%) of [Gd(ent‐L2)] (n = 6 mice) and [Gd(BT‐DO3A)] (Gadovist, Bayer Schering, Germany) (n = 6 mice) at an injection rate of ≈2 mL/min through a catheter placed in the tail vein of the animal. Both [Gd(ent‐L2)] and [Gd(BT‐DO3A)] were administered at a dose of 0.1 mmol Gd/kg corresponding to an administration volume of 2 mL kg^−1. The kinetics of the Gd(III)‐complexes was followed up to 60 min post‐injection. After imaging was performed, the mouse was removed from the scanner and returned to the Animal Facility room. At the end of the study all animals were sacrificed by overdose of anaesthesia and cervical dislocation. Unblinded image analysis was performed by positioning the region of interest (ROIs) over liver, kidney, muscle, and blood vessel. ROIs positioning and signal quantification was performed by using a home‐developed plugin, running on Image J.^[ [51] ^]
Signal enhancement (Enh) was calculated using the formula: Enh = 100×(SignalpostCA ‐SignalpreCA)/SignalpreCA, where SignalpreCA and SignalpostCA denote the MR signal before and after administration of contrast agents, respectively. Data were presented as mean ± standard deviation (SD). The sample size (n = 6 per group) was determined a priori using GPower software to ensure adequate statistical power. The Levene's test was employed to assess the homogeneity of variances among groups. For comparisons where homogeneity of variance was confirmed, a one‐way ANalysis Of VAriance (ANOVA) was applied to test the null hypothesis that treatment groups originate from the same distribution. Post‐hoc pairwise multiple comparisons were performed using Tukey's method when significant differences were detected. Statistical analyses and data visualization were conducted using Mathematica (Wolfram, USA), while summary statistics (mean, SD, and standard error) were calculated using Microsoft Excel (USA). […]

| SMILES | pGd (Eu^3+) ([1]; 1 µM metal, 10 µM L, pH 7.4) | logK GdL (Eu^3+) [1] | logKGdH2L (Eu^3+) [1] | logKGdH3L (Eu^3+) [1] | logKGdHL (Eu^3+) [1] | logK^c GdL (Eu^3+) ([1]; pH 7.4) | elimination pathway [2] | average maximum signal enhancement in the liver ([2]; 3 T, n = 6) | wash-in and wash-out kinetics ([2]; up to 1 h post-administration) | maximum signal enhancement in the blood compartment, times higher than that of [Gd(BT-DO3A)] ([2]; same dose, 3 T, significance level 0.1%) | decrease in signal enhancement in the blood compartment ([2]; within 30 min, 3 T) |
| --- | --- | --- | --- | --- | --- | --- | --- | --- | --- | --- | --- |
| O=C(O)CCC(C(=O)O)N1CCN(C(CCC(=O)O)C(=O)O)Cc2cccc(n2)CN(C(CCC(=O)O)C(=O)O)CC1 (racemic) [rac‐L1, 2,2’,2’’-[3,6,9,15-tetraazabicyclo[9.3.1]pentadeca-1(15),11,13-triene-3,6,9-triyl]tripentanedioic acid] | 16.06 | 18.66 | 4.54 | 4.12 | 5.34 | 15.10 |  |  |  |  |  |
| O=C(CCC(C(=O)[O-])N1CCN(C(CCC(=O)NCC(O)CO)C(=O)[O-])Cc2cccc(n2)CN(C(CCC(=O)NCC(O)CO)C(=O)[O-])CC1)NCC(O)CO.[Gd+3] (stereo not drawn) [[Gd(ent‐L2)]] |  |  |  |  |  |  | renal elimination remains the primary pathway | ≈ 210% | rapid wash‐in and wash‐out | ≈ 2 times | ≥ 50% |
